Measured values reported in US20120171213A1, “METHOD OF TREATING TUMORS” (Yissum Research Development Company of the Hebrew …, priority 2009, published 2012).

Experiments:
tumor cell = conditions: both in vitro and in vivo; cited from earlier work
[1] = system: hES-cell teratoma-derived tumor cells (WA09, TE06); experiment: Annexin V / PI flow cytometry for apoptosis after Taxol and Purvalanol A treatment in vitro; format: cell-based, human; conditions: 0.2 µM Taxol 16 hours and/or 10 µM Purvalanol A 16 hours, sequential, versus DMSO, n=5
Description: FACS: Annexin V and PI staining for apoptosis detection was performed using the Annexin V-PE kit (Bender MedSystems) according to the manufacturer's instructions. FACS analysis was performed using FACSCaliber system (Becton Dickinson). Analysis was performed on […] software (Becton Dickinson). Forward and side scatter plots were used to exclude debris from the histogram analysis.
The medium was then replaced with a medium containing […] Purvalanol A (Sigma), and the cells were cultured for an additional 16 hours. Other wells were treated with either Taxol for 16 hours followed by DMSO (the solution vehicle) for 16 hours or DMSO for 16 hours followed by Purvalanol A for 16 hours. Control wells were treated twice with DMSO at the same time points. Mice bearing hES-cell teratomas for 30 d were injected intraperitoneally with 7 mg/kg Taxol and 24 hours later were injected with 60 mg/kg Purvalanol A. Reagents were injected in a solution of DMSO/PEG400 at 1:1 ratio. Control mice received vehicle injections at the same time points. Mice were euthanized 18 hours after the last injection. Fresh frozen […] teratoma sections were subjected to TUNEL using the ApoAlert DNA Fragmentation Assay Kit (Clontech) according to the manufacturer's instructions.

SMILES	tumor cell death by apoptosis (tumor cell)	fold increase in apoptotic cells (Annexin V positive) [1]
CC(=O)O[C@H]1C(=O)[C@@]2(C)[C@H]([C@H](OC(=O)c3ccccc3)[C@]3(O)C[C@H](OC(=O)[C@H](O)[C@@H](NC(=O)c4ccccc4)c4ccccc4)C(C)=C1C3(C)C)[C@]1(OC(C)=O)CO[C@@H]1C[C@@H]2O [Taxol]	negligible results	
CC(C)[C@H](CO)Nc1nc(Nc2cccc(Cl)c2)c2ncn(C(C)C)c2n1 [Purvalanol A]	negligible results	no significant effect
